# Test results: ChEMBL document CHEMBL1134505, “Secretase targets for Alzheimer's disease: identification and therapeutic potential” (J Med Chem, 2001)
# pIC50, pKi: −log10 of the molar value. Numbered stars: 1 amine (or outer) side, 2 acyl side, 3 side chain; on linkers, the order of the positions; unused ones are H or OH. Square brackets hold non-standard residues; d marks the D form. Peptide text beside a SMILES is read from it. * marks the point of attachment. X1 = CC(C)C[C@H](N[*:1])C(O)C[C@@H](C)C(=O)[*:2]; X2 = C[C@H](N[*:1])C(=O)C(F)(F)C(=O)[*:2]; Sta = CC(C)C[C@H](N)[C@@H](O)CC(=O)O; Nva = CCC[C@H](N)C(=O)O; Cbz = O=C(OCc1ccccc1)*; Boc = CC(C)(C)OC(=O)*
# Columns and labels:
# [1] = target: Gamma-secretase subunit PEN-2 (Homo sapiens, UniProt Q9NZ42); assay: Inhibition of Amyloid-beta production in APP-transfected cells at level of gamma secretase; format: functional, cell-based
# Beta-secretase 1 = Beta-secretase 1 (Homo sapiens, UniProt P56817); assay: Inhibition of human recombinant beta-secretase
# Beta-secretase (BACE) [2] = target: T1, Beta-secretase (BACE) (Homo sapiens, UniProt Q9Y5Z0+P56817); assay: In vitro inhibition of beta-secretase was evaluated; format: protein assay
# Beta-secretase (BACE) [3] = target: T1, Beta-secretase (BACE); assay: Inhibition of beta-secretase activity; format: protein assay
# Sequence of Gamma-secretase subunit PEN-2 (Q9NZ42 whole entry): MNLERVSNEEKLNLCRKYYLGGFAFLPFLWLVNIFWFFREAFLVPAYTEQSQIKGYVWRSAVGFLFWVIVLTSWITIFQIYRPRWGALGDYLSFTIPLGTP
# Sequence of Beta-secretase 1 (P56817 whole entry): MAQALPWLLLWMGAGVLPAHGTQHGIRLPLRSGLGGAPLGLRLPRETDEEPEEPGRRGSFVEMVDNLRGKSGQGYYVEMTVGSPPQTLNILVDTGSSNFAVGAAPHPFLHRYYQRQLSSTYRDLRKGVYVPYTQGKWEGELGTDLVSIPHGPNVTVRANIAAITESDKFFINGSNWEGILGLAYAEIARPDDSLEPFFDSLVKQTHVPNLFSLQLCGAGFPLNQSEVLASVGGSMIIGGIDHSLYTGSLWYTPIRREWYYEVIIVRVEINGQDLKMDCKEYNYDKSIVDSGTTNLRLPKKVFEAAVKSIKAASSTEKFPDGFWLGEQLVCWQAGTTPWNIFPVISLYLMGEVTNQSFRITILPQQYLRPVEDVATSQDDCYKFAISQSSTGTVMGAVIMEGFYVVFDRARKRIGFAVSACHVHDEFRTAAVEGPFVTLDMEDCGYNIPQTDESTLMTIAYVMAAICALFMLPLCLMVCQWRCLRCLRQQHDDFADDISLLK
SMILES,pIC50 [1],further results
CC[C@H](C)[C@H](NC(=O)[C@@H](NC(=O)OC(C)(C)C)C(C)C)C(=O)N[C@@H](C)C(=O)C(F)(F)C(=O)N[C@H](C(=O)N[C@H](C(=O)OC)[C@@H](C)CC)C(C)C (Boc-VI[X2]VI-OMe),4.89,–
CCC[C@@H](C=O)NC(=O)[C@H](CC(C)C)NC(=O)OCc1ccccc1 (Cbz-Leu-[Nva]-aldehyde),3.70,–
CC(C)C[C@H](NC(=O)[C@H](CC(N)=O)NC(=O)[C@@H](N)C(C)C)C(O)C[C@@H](C)C(=O)N[C@@H](C)C(=O)N[C@@H](CCC(=O)O)C(=O)N[C@@H](Cc1ccccc1)C(=O)O (stereo partly drawn) (H-VN[X1]AEF-OH),–,pKi (Beta-secretase 1): 7.17
CCC[C@@H](C=O)NC(=O)[C@H](CC(C)C)NC(=O)[C@H](CC(C)C)NC(C)=O (Ac-Leu-Leu-[Nva]-aldehyde),3.70,–
CC(C)C[C@@H](C=O)NC(=O)[C@H](CC(C)C)NC(=O)[C@H](CC(C)C)NC(=O)OCc1ccccc1 [MG-132] (Cbz-Leu-Leu-Leu-aldehyde),3.70,–
CC[C@H](C)[C@H](NC(=O)[C@H](CCC(=O)O)NC(=O)[C@H](CCC(=O)O)NC(=O)[C@@H](NC(=O)[C@@H](N)CCCCN)[C@@H](C)O)C(=O)N[C@@H](CO)C(=O)N[C@@H](CCC(=O)O)C(=O)N[C@H](C(=O)N[C@@H](CC(N)=O)C(=O)N[C@@H](CC(C)C)[C@@H](O)CC(=O)N[C@H](C(=O)N[C@@H](C)C(=O)N[C@@H](CCC(=O)O)C(=O)N[C@@H](Cc1ccccc1)C(=O)O)C(C)C)C(C)C (H-KTEEISEVN[Sta]VAEF-OH),–,IC50 (Beta-secretase (BACE) [2]): 30 nM
CC(C)C[C@H](NC(=O)[C@H](Cc1ccccc1)C[C@@H](O)[C@H](Cc1ccccc1)NC(=O)OC(C)(C)C)C(=O)N[C@@H](Cc1ccccc1)C(N)=O,–,IC50 (Beta-secretase (BACE) [3]): 0.3 µM
CC(C)C[C@H](NC(=O)[C@H](CC(N)=O)NC(=O)[C@@H](NC(=O)[C@@H](N)CC(=O)O)C(C)C)C(O)C[C@@H](C)C(=O)N[C@@H](C)C(=O)N[C@@H](CCC(=O)O)C(=O)N[C@@H](Cc1ccccc1)C(=O)O (stereo partly drawn) (H-DVN[X1]AEF-OH),–,pKi (Beta-secretase 1): 8.00
